Several values for one entry are separate records, joined by “and”; a condition that tells them apart may be missing. Equal values may be shown once. Read-outs that look alike come from different tables or passages of the source.
What was measured:
[1] = test system: spontaneously hypertensive rats (SHR); assay: Effect on reducing blood pressure of spontaneously hypertensive rats (SHR) by multiple oral administrations; format: in vivo; conditions: for inhibition in vivo at 0.5 mg/kg / inhibition in vivo at 1 mg/kg / inhibition in vivo at 2 mg/kg: Rattus norvegicus; for inhibition in vivo at 0.5 mg/kg / inhibition in vivo at 1 mg/kg / inhibition in vivo at 2 mg/kg / blood pressure reduction effect compared with Azilsartan medoxomil: SHR
[2] = test system: normal rats; assay: Effect on blood pressure of normal rats by single oral administration; format: in vivo, Wistar rats; conditions: for inhibition in vivo at 0.5 mg/kg / inhibition in vivo at 1 mg/kg / inhibition in vivo at 2 mg/kg / change in vivo at 0.5 mg/kg / change in vivo at 1 mg/kg / change in vivo at 2 mg/kg: Rattus norvegicus, po, single, normal rats; for inhibition in vivo at 0.5 mg/kg / inhibition in vivo at 1 mg/kg / inhibition in vivo at 2 mg/kg: 8 h, read-out: blood pressure reduction at 8 h after the administration; for inhibition in vivo at 0.5 mg/kg / change in vivo at 0.5 mg/kg: 0.5 mg/kg p.o.; for inhibition in vivo at 1 mg/kg / change in vivo at 1 mg/kg: 1.0 mg/kg p.o.; for inhibition in vivo at 2 mg/kg / change in vivo at 2 mg/kg: 2.0 mg/kg p.o.; for change in vivo at 0.5 mg/kg / change in vivo at 1 mg/kg / change in vivo at 2 mg/kg: read-out: variations on heart rate
[3] = test system: renovascular hypertensive rats; assay: Effect on reducing blood pressure of renovascular hypertensive rats by single oral administration; format: in vivo, Wistar rats; conditions: for change in vivo at 0.5 mg/kg / inhibition in vivo at 0.5 mg/kg / change in vivo at 1 mg/kg / inhibition in vivo at 1 mg/kg / change in vivo at 2 mg/kg / inhibition in vivo at 2 mg/kg: Rattus norvegicus, single oral administration; for change in vivo at 0.5 mg/kg / change in vivo at 1 mg/kg / change in vivo at 2 mg/kg: RHR, read-out: Variations on heart rate; for inhibition in vivo at 0.5 mg/kg / inhibition in vivo at 1 mg/kg / inhibition in vivo at 2 mg/kg: two-kidney one-clip RHR, measured 1-10 h, read-out: Maximum blood pressure reduction
[4] = 0.5 mg/kg oral once per day, 1 hour after the administration, read-out: Maximum blood pressure reduction, 1st-day administration
[5] = 0.5 mg/kg oral once per day, 1 hour after the administration, read-out: Maximum blood pressure reduction, 7th-day administration
[6] = 0.5 mg/kg oral once per day, 1 hour after the administration, read-out: Maximum blood pressure reduction, 14th-day administration
[7] = 1.0 mg/kg oral once per day, 1 hour after the administration, read-out: Maximum blood pressure reduction, 1st-day administration
[8] = 1.0 mg/kg oral once per day, 1 hour after the administration, read-out: Maximum blood pressure reduction, 7th-day administration
[9] = 1.0 mg/kg oral once per day, 1 hour after the administration, read-out: Maximum blood pressure reduction, 14th-day administration
[10] = 2.0 mg/kg oral once per day, 1 hour after the administration, read-out: Maximum blood pressure reduction, 1st-day administration
[11] = 2.0 mg/kg oral once per day, 1 hour after the administration, read-out: Maximum blood pressure reduction, 7th-day administration
[12] = 2.0 mg/kg oral once per day, 1 hour after the administration, read-out: Maximum blood pressure reduction, 14th-day administration
[13] = renal artery-ligated rat, result in words
[14] = 1.0 mg/kg oral, read-out: Heart Rate (effect on reducing heart rate)
[15] = renal artery-ligated rat, 24 hours after the administration, dose not stated
[16] = 0.5 mg/kg oral, read-out: Heart Rate (effect on reducing heart rate)
[17] = 2.0 mg/kg oral, read-out: Heart Rate (effect on reducing heart rate)
[18] = during the whole administration, result in words

Compound	inhibition in vivo at 0.5 mg/kg [1, 4] [%]	inhibition in vivo at 0.5 mg/kg [1, 5] [%]	inhibition in vivo at 0.5 mg/kg [1, 6] [%]	inhibition in vivo at 1 mg/kg [1, 7] [%]	inhibition in vivo at 1 mg/kg [1, 8] [%]	inhibition in vivo at 1 mg/kg [1, 9] [%]	inhibition in vivo at 2 mg/kg [1, 10] [%]	inhibition in vivo at 2 mg/kg [1, 11] [%]	inhibition in vivo at 2 mg/kg [1, 12] [%]	inhibition in vivo at 0.5 mg/kg [2] [%]	inhibition in vivo at 1 mg/kg [2] [%]	inhibition in vivo at 2 mg/kg [2] [%]	change in vivo at 0.5 mg/kg [2] [%]	change in vivo at 1 mg/kg [2] [%]	change in vivo at 2 mg/kg [2] [%]	change in vivo at 0.5 mg/kg [3] [%]	inhibition in vivo at 0.5 mg/kg [3] [%]	change in vivo at 1 mg/kg [3] [%]	inhibition in vivo at 1 mg/kg [3] [%]	change in vivo at 2 mg/kg [3] [%]	further results
CCOc1nc2cccc(C(=O)OC(C)OC(=O)OCc3no[n+]([O-])c3C)c2n1Cc1ccc(-c2ccccc2-c2noc(=O)[nH]2)cc1 (stereo not drawn) [QR01021]	23 ± 6.4	24 ± 4.1	25 ± 5	42 ± 7.7	40 ± 3.8	44 ± 5.1	44 ± 6	44 ± 8.7	46 ± 5.9	2.7 ± 3.2	3.9 ± 3.8	2.8 ± 3.1	-4 ± 3	-2 ± 5	-1 ± 3	-6 ± 5	15 ± 2.1	-3 ± 6	28 ± 4.5	-12 ± 5	blood pressure reduction effect compared with Azilsartan medoxomil ([1]; result in words): obviously superior to that of the Azilsartan medoxomil positive drug; inhibition in vivo at 2 mg/kg [3]: 32 ± 5.2%; blood pressure reduction effect compared with Azilsartan medoxomil [3, 13]: close to that of Azilsartan medoxomil
CCOc1nc2cccc(C(=O)OCc3oc(=O)oc3C)c2n1Cc1ccc(-c2ccccc2-c2noc(=O)[nH]2)cc1 [Azilsartan medoxomil, reference compound]	–	–	–	32 ± 3.5	34 ± 2.8	36 ± 3.6	–	–	–	–	6.4 ± 2.1	–	–	-5 ± 2	–	–	–	-7 ± 3	30 ± 3.8	–	inhibition in vivo at 1 mg/kg [1, 14]: 8 ± 3%; blood pressure reduction at 24 hours after the administration [3, 15]: 20%
CCOc1nc2cccc(C(=O)OCc3no[n+]([O-])c3C#N)c2n1Cc1ccc(-c2ccccc2-c2noc(=O)[nH]2)cc1 [QR01036]	20 ± 5.3	24 ± 8.6	24 ± 5.9	35 ± 7.8	35 ± 4.6	40 ± 7.8	46 ± 9.2	45 ± 8.3	48 ± 7.2	2.8 ± 2.1	5.2 ± 3.5	6.3 ± 2	-1 ± 6	-8 ± 2	-5 ± 5	-12 ± 9	19 ± 3.5	-18 ± 7	38 ± 4.2	-25 ± 7	inhibition in vivo at 0.5 mg/kg [1, 16]: 14 ± 4%; inhibition in vivo at 1 mg/kg [1, 14]: 25 ± 2%; inhibition in vivo at 2 mg/kg [1, 17]: 21 ± 3%; blood pressure reduction effect compared with Azilsartan medoxomil ([1]; result in words): obviously superior to that of the Azilsartan medoxomil positive drug; reduction effects on the heart rate of SHR rats [1, 18]: significant reduction effects on the heart rate; inhibition in vivo at 2 mg/kg [3]: 46 ± 5%; blood pressure reduction at 24 hours after the administration [3, 15]: 24%; blood pressure reduction effect compared with Azilsartan medoxomil [3, 13]: obviously superior to that of the Azilsartan medoxomil positive drug; lasting time of the blood pressure reduction effect compared with Azilsartan medoxomil [3, 13]: close to that of Azilsartan medoxomil
CCOc1nc2cccc(C(=O)OCc3c(-c4ccccc4)no[n+]3[O-])c2n1Cc1ccc(-c2ccccc2-c2noc(=O)[nH]2)cc1 [QR01009]	24 ± 6.8	28 ± 5.3	25 ± 4.9	42 ± 6.3	41 ± 5.9	45 ± 6.7	45 ± 5.6	48 ± 4.6	43 ± 7.2	3.1 ± 2.4	5.6 ± 1.9	4.8 ± 5.8	-5 ± 2	4	-8 ± 5	-12 ± 4	22 ± 2.8	-25 ± 5	36 ± 3.2	-28 ± 8	inhibition in vivo at 0.5 mg/kg [1, 16]: 23 ± 3%; inhibition in vivo at 1 mg/kg [1, 14]: 24 ± 2%; inhibition in vivo at 2 mg/kg [1, 17]: 27 ± 5%; blood pressure reduction effect compared with Azilsartan medoxomil ([1]; result in words): obviously superior to that of the Azilsartan medoxomil positive drug; reduction effects on the heart rate of SHR rats [1, 18]: significant reduction effects on the heart rate; inhibition in vivo at 2 mg/kg [3]: 43 ± 6.7%; blood pressure reduction at 24 hours after the administration [3, 15]: 25%; blood pressure reduction effect compared with Azilsartan medoxomil [3, 13]: obviously superior to that of the Azilsartan medoxomil positive drug; lasting time of the blood pressure reduction effect compared with Azilsartan medoxomil [3, 13]: close to that of Azilsartan medoxomil
CCOc1nc2cccc(C(=O)OCOC(=O)OCc3nc(C)c(C)nc3C)c2n1Cc1ccc(-c2ccccc2-c2noc(=O)[nH]2)cc1 [QR01017]	–	–	–	–	–	–	–	–	–	–	–	–	–	–	–	–	–	–	–	–	Heart Rate (effect on reducing heart rate) ([1]; rat, in vivo): 18 ± 5% and 24 ± 4% and 29 ± 6%; Maximum blood pressure reduction, 1st-day administration ([1]; rat, in vivo): 22 ± 5.0% and 34 ± 4.4% and 36 ± 4.5%; Maximum blood pressure reduction, 7th-day administration ([1]; rat, in vivo): 22 ± 3.3% and 35 ± 3.9% and 38 ± 2.1%; Maximum blood pressure reduction, 14th-day administration ([1]; rat, in vivo): 23 ± 3.9% and 36 ± 3.2% and 38 ± 3.6%; reduction effects on the heart rate of SHR rats ([1]; rat, in vivo): significant reduction effects on the heart rate; Variations on heart rate ([2]; rat, in vivo): −5 ± 2% and −2 ± 4% and −4 ± 3%; blood pressure reduction at 8 h after the administration ([2]; rat, in vivo): 2.9 ± 4.5% and 3.3 ± 4.1% and 5.1 ± 3.2%; Maximum blood pressure reduction ([3]; rat, in vivo): 25 ± 6.2% and 38 ± 3.5% and 46 ± 2.6%; blood pressure reduction at 24 hours after the administration ([3]; rat, in vivo): 20%; blood pressure reduction effect compared with Azilsartan medoxomil ([3]; rat, in vivo): obviously superior to that of the Azilsartan medoxomil positive drug; lasting time of the blood pressure reduction effect compared with Azilsartan medoxomil ([3]; rat, in vivo): close to that of Azilsartan medoxomil
CCOc1nc2cccc(C(=O)OCOC(=O)OCc3no[n+]([O-])c3C)c2n1Cc1ccc(-c2ccccc2-c2noc(=O)[nH]2)cc1 [QR01020]	19 ± 6.8	18 ± 6.9	21 ± 4.6	30 ± 5.5	32 ± 8.3	35 ± 6.2	36 ± 5.3	42 ± 7.5	43 ± 7	2.8 ± 5.3	3.9 ± 4.3	5.6 ± 3.2	-1 ± 4	-7 ± 3	3	-15 ± 3	25 ± 4.3	-28 ± 6	34 ± 6.8	-25 ± 8	inhibition in vivo at 0.5 mg/kg [1, 16]: 16 ± 4%; inhibition in vivo at 1 mg/kg [1, 14]: 25 ± 3%; inhibition in vivo at 2 mg/kg [1, 17]: 18 ± 5%; reduction effects on the heart rate of SHR rats [1, 18]: significant reduction effects on the heart rate; inhibition in vivo at 2 mg/kg [3]: 48 ± 2.6%; blood pressure reduction at 24 hours after the administration [3, 15]: 15%; blood pressure reduction effect compared with Azilsartan medoxomil [3, 13]: obviously superior to that of the Azilsartan medoxomil positive drug; lasting time of the blood pressure reduction effect compared with Azilsartan medoxomil [3, 13]: close to that of Azilsartan medoxomil
CCOc1nc2cccc(C(=O)OCc3oc(=S)oc3C)c2n1Cc1ccc(-c2ccccc2-c2noc(=O)[nH]2)cc1 [QR01013]	14 ± 5.9	15 ± 7.1	17 ± 5.8	24 ± 5.8	28 ± 6	27 ± 6.4	34 ± 5.9	38 ± 5.7	39 ± 7.1	4.2 ± 2.7	6.2 ± 2.3	3.4 ± 4.2	-3 ± 4	5	-5 ± 4	-6 ± 4	16 ± 3	-8 ± 3	25 ± 4.5	-10 ± 5	inhibition in vivo at 2 mg/kg [3]: 34 ± 7.1%
